Measured values taken from patent EP0083750A1, “Antimycotic azolyl butanols” (BAYER AG, priority 1981, dated 1983).
Values after ≈ are worked out from the molar mass of the structure shown.

Legend:
Trichophyton mentagr. = assay: Antimycotic in-vitro activity, serial dilution test (MIC); type: cell-based; conditions: 96 h, Reihenverdünnungstest, 5 x 10^4 Keimen/ml Substrat, Sabourand's milieu d'epreuve, 20°C, 96 Stunden, read-out: MHK-Werte in γ/ml Nährmedium, Trichophyton mentagr.
Procedure: (§1) Versuchsbeschreibung: • Die in-vitro-Prüfungen wurden im Reihenverdünnungstest mit Keiminokula von durchschnittlich 5 x 10^4 Keimen/ml Substrat durchgeführt. Als Nährmedium dienten • a) für Dermatophyten und Schimmelpilze: Sabourand's milieu d'epreuve • b) für Hefen: • Fleischextrakt-Traubenzucker-Bouillon.
(§2) Die Bebrütungstemperatur betrug 20°C, die Bebrütungsdauer lag bei 24 bis 96 Stunden bei Hefen und 96 Stunden bei Dermatophyten und Schimmelpilzen.

Candida albicans = assay: as above; type: cell-based; conditions: Reihenverdünnungstest, 5 x 10^4 Keimen/ml Substrat, Fleischextrakt-Traubenzucker-Bouillon, 20°C, 24 bis 96 Stunden, read-out: MHK-Werte in γ/ml Nährmedium, Candida albicans
Procedure: as §1, §2

Candida-Zellen = assay: Antimycotic in-vivo activity (oral) in mouse candidosis; design: species or system Mäuse vom Typ SPF-CF1; key to Wirkung (Überlebende am 6.Tag p.i.): +++++: = sehr gute Wirkung = 90 % Überlebende am 6.Tag p.i.; ++++: = gute Wirkung = 80 % Überlebende am 6.Tag p.i.; +++: = Wirkung = 60 % Überlebende am 6.Tag p.i.; ++: = schwache Wirkung = 40 % Überlebende am 6.Tag p.i.; +: = Spur Wirkung = unter 40 % Überlebende am 6. Tag; k.W.: = keine Wirkung; conditions: for Wirkung (Überlebende am 6.Tag p.i.): Mäuse SPF-CF1, intravenös infiziert mit 1 - 2 x 10^6 Candida-Zellen, jeweils 50 - 100 mg/kg oral, 1 Stunde vor und 7 Stunden nach Infektion; for Wirkung im Vergleich zu den bekannten Verbindungen (A) und (B): Mäusecandidose, oral
Procedure: Antimykotische in-vivo-Wirksamkeit (oral) bei Mäusecandidose
Mäuse vom Typ SPF-CF1 wurden intravenös mit 1 - 2 x 10^6 logarithmisch wachsenden Candida-Zellen, die in physiologischer Kochsalzlösung suspendiert werden, infiziert. Eine Stunde vor und sieben Stunden nach der Infektion werden die Tiere mit jeweils 50 - 100 mg/kg Körpergewicht der Präparate oral behandelt.
Unbehandelte Tiere starben 3 bis 6 Tage post infektionem. Die Überlebensrate am 6. Tag post infektionem betrug bei unbehandelten Kontrolltieren etwa 5 %.

Aspergillus fumig. = assay: Antimycotic in-vitro activity, serial dilution test (MIC); type: cell-based; conditions: 96 h, Reihenverdünnungstest, 5 x 10^4 Keimen/ml Substrat, Sabourand's milieu d'epreuve, 20°C, 96 Stunden, read-out: MHK-Werte in γ/ml Nährmedium, Aspergillus fumig.
Procedure: as §1, §2

Microsporum canis = assay: as above; type: cell-based; conditions: 96 h, Reihenverdünnungstest, 5 x 10^4 Keimen/ml Substrat, Sabourand's milieu d'epreuve, 20°C, 96 Stunden, read-out: MHK-Werte in γ/ml Nährmedium, Microsporum canis
Procedure: as §1, §2

[1] = system: Trichophyton von mentagrophytes; assay: Antimycotic in-vivo activity (local) in experimental guinea pig trichophytosis; conditions: Meerschweinchen-Trichophytie, lokal
Description: Antimikrobielle in-vivo-Wirksamkeit (lokal) am Modell der experimentellen Meerschweinchen-Trichophytie
Weiße Mäuse der Rasse Pirbright-white wurden auf dem geschorenen, nicht skarifizierten Rücken mit einer Mikro-und Makrokonidien-Suspension von Trichophyton von mentagrophytes infiziert.
Die infizierten Tieren wurden, beginnend mit dem 3. Tag p.i., 1 x täglich mit einer 15%-igen Lösung der erfindungsgemäßen Präparate (in Dimethylsulfoxid : Glycerin = 1 : 4) lokal behandelt.
Bei unbehandelten Tieren entwickelte sich innerhalb 12 Tagen p.i. das typische Bild einer Dermatophytose mit Rötung, Schuppung und Haarausfall bis zum totalen Integument-Defekt an der Infektionsstelle.

Torulopsis glabrata = assay: Antimycotic in-vitro activity, serial dilution test (MIC); type: cell-based; conditions: Nakaseomyces glabratus; Reihenverdünnungstest, 5 x 10^4 Keimen/ml Substrat, Fleischextrakt-Traubenzucker-Bouillon, 20°C, 24 bis 96 Stunden; read-out: MHK-Werte in γ/ml Nährmedium, Torulopsis glabrata
Procedure: as §1, §2

[2] = system: Dermatophyten, Schimmelpilze, Hefen; assay: Antimycotic in-vitro activity, serial dilution test, overall comparison with prior art; type: cell-based; conditions: in-vitro Reihenverdünnungstest
Procedure: as §1, §2

Row | Compound | MIC (Trichophyton mentagr.) | MIC (Candida albicans) | Wirkung (Überlebende am 6.Tag p.i.) (Candida-Zellen) | MIC (Aspergillus fumig.) | MIC (Microsporum canis) | Wirkung [1] | MIC (Torulopsis glabrata) | antimykotische Wirkung im Vergleich zu den bekannten Verbindungen (A) und (B) [2] | Wirkung im Vergleich zu den bekannten Verbindungen (A) und (B) (Candida-Zellen)
1 | CC(C(O)c1ccc(Cl)cc1)n1cncn1 (centres unmarked) [(A), reference compound] | > 64 µg/mL | > 64 µg/mL | k.W. | – | – | – | – | – | –
2 | OC(Cn1cncn1)c1ccc(-c2ccc(Cl)cc2)cc1 (centres unmarked) [(B), reference compound] | 4 µg/mL (≈ 13.3 µM) | > 64 µg/mL | k.W. | > 64 µg/mL | > 64 µg/mL | – | – | – | –
3 | CC(C)(COc1ccc(Cl)cc1)C(O)C(Cc1ccc(Cl)cc1Cl)n1cncn1 (centres unmarked) [Beispiel 11] | < 1 µg/mL | < 1 µg/mL | ++ (= schwache Wirkung = 40 % Überlebende am 6.Tag p.i.) | 64 µg/mL (≈ 141 µM) | < 1 µg/mL | gute bis sehr gute Wirkung | < 1 µg/mL | bessere antimykotische Wirkung | bessere Wirkung
4 | CC(C)(COc1ccc(Cl)cc1)C(O)C(CC1CCCCC1)n1ccnc1 (centres unmarked) [Beispiel 20] | < 1 µg/mL | < 1 µg/mL | ++++ (= gute Wirkung = 80 % Überlebende am 6.Tag p.i.) | 4 µg/mL (≈ 10.2 µM) | 4 µg/mL (≈ 10.2 µM) | gute bis sehr gute Wirkung | 8 µg/mL (≈ 20.5 µM) | bessere antimykotische Wirkung | bessere Wirkung
5 | CCCCC(C(O)C(C)(C)COc1ccc(Br)cc1)n1cncn1 (centres unmarked) [Beispiel 46] | < 1 µg/mL | < 1 µg/mL | ++++ (= gute Wirkung = 80 % Überlebende am 6.Tag p.i.) | 4 µg/mL (≈ 10.1 µM) | < 1 µg/mL | gute bis sehr gute Wirkung | < 1 µg/mL | bessere antimykotische Wirkung | bessere Wirkung
6 | CC(C)(Cc1ccccc1)C(O)C(Cc1ccc(Cl)cc1Cl)n1cncn1 (centres unmarked) [Beispiel 83] | < 1 µg/mL | < 1 µg/mL | – | 32 µg/mL (≈ 79.1 µM) | 8 µg/mL (≈ 19.8 µM) | – | 4 µg/mL (≈ 9.89 µM) | bessere antimykotische Wirkung | –
7 | CCOCC(C)(C)C(O)C(Cc1ccc(Cl)cc1Cl)n1cncn1 (centres unmarked) [Beispiel 85] | 4 µg/mL (≈ 10.7 µM) | < 1 µg/mL | – | 16 µg/mL (≈ 43 µM) | 8 µg/mL (≈ 21.5 µM) | – | 4 µg/mL (≈ 10.7 µM) | bessere antimykotische Wirkung | –
8 | CCOCC(C)(C)C(O)C(Cc1ccc(Cl)c(Cl)c1)n1cncn1 (centres unmarked) [Beispiel 86] | 2 µg/mL (≈ 5.37 µM) | 16 µg/mL (≈ 43 µM) | – | 8 µg/mL (≈ 21.5 µM) | 4 µg/mL (≈ 10.7 µM) | – | 32 µg/mL (≈ 86 µM) | bessere antimykotische Wirkung | –
9 | COc1cccc(CC(C(O)C(C)(C)COc2ccc(Cl)cc2)n2cncn2)c1 (centres unmarked) [Beispiel 87] | < 1 µg/mL | < 1 µg/mL | ++ (= schwache Wirkung = 40 % Überlebende am 6.Tag p.i.) | 16 µg/mL (≈ 38.5 µM) | 8 µg/mL (≈ 19.2 µM) | – | 2 µg/mL (≈ 4.81 µM) | bessere antimykotische Wirkung | bessere Wirkung
10 | C=CCCC(C(O)C(C)(C)COc1ccc(Cl)c(Cl)c1)n1cncn1 (centres unmarked) [Beispiel 95] | < 1 µg/mL | 2 µg/mL (≈ 5.2 µM) | – | 8 µg/mL (≈ 20.8 µM) | < 1 µg/mL | – | 32 µg/mL (≈ 83.3 µM) | bessere antimykotische Wirkung | –
11 | CC(C)(COc1ccc(-c2ccccc2)cc1)C(O)Cn1ccnc1 (centres unmarked) [Beispiel 96] | < 1 µg/mL | < 1 µg/mL | – | 64 µg/mL (≈ 190 µM) | < 1 µg/mL | – | 16 µg/mL (≈ 47.6 µM) | bessere antimykotische Wirkung | –
12 | CCCCC(C(O)C(C)(C)COc1ccc(-c2ccccc2)cc1)n1cncn1 (centres unmarked) [Beispiel 100] | < 1 µg/mL | 8 µg/mL (≈ 20.3 µM) | +++ (= Wirkung = 60 % Überlebende am 6.Tag p.i.) | 4 µg/mL (≈ 10.2 µM) | 8 µg/mL (≈ 20.3 µM) | – | 32 µg/mL (≈ 81.3 µM) | bessere antimykotische Wirkung | bessere Wirkung
13 | CC(C)(Cc1ccc(Cl)cc1)C(O)C(Cc1ccccc1)n1ccnc1 (centres unmarked) [Beispiel 128] | < 1 µg/mL | < 1 µg/mL | ++++ (= gute Wirkung = 80 % Überlebende am 6.Tag p.i.) | 8 µg/mL (≈ 21.7 µM) | 16 µg/mL (≈ 43.4 µM) | – | 8 µg/mL (≈ 21.7 µM) | bessere antimykotische Wirkung | bessere Wirkung
